Activity calls are given as the source filed them.
What was measured:
Candida albicans = assay: fluconazole-resistant Candida strain growth inhibitors – CaCi-8 strain, dry powder, set 4, dose response (AID 488950); assay type: functional, organism-based
Jurkat = assay: SAR Analysis of small molecule inhibitors of T-cell specific antigen receptor-induced NF-kB activation in a Jurkat cell line using a luminescence assay - Set 2. [Related pubchem assays (depositor defined):AID435003, AID435012, AID465]; assay type: functional, cell-based; conditions: Homo sapiens
HEK293 [1] = assay: HEK293T cell viability loss, resazurin readout – resazurin fluorescence, cytotoxicity control for NF-kB activator project, SAR follow-up (AID 493251); assay type: functional, cell-based; conditions: Homo sapiens
HEK293 [2] = assay: SAR Analysis of small molecule inhibitors of T-cell specific antigen receptor-induced NF-kB activation in a HEK-293T cell line using a luminescence assay - Set 2. [Related pubchem assays (depositor defined):AID435003, AID435012, AID489026]; assay type: functional, cell-based; conditions: Homo sapiens
[3] = molecular target: T1, Short transient receptor potential channel 4 (Mus musculus, UniProt Q9QUQ5); assay: mouse TRPC4 block via Gq-coupled stimulation – cell-based, acetylcholine stimulus, HEK293 TRPC4, Fluo-4, SAR follow-up (AID 492996); assay type: functional
T1 sequence (Q9QUQ5 whole entry): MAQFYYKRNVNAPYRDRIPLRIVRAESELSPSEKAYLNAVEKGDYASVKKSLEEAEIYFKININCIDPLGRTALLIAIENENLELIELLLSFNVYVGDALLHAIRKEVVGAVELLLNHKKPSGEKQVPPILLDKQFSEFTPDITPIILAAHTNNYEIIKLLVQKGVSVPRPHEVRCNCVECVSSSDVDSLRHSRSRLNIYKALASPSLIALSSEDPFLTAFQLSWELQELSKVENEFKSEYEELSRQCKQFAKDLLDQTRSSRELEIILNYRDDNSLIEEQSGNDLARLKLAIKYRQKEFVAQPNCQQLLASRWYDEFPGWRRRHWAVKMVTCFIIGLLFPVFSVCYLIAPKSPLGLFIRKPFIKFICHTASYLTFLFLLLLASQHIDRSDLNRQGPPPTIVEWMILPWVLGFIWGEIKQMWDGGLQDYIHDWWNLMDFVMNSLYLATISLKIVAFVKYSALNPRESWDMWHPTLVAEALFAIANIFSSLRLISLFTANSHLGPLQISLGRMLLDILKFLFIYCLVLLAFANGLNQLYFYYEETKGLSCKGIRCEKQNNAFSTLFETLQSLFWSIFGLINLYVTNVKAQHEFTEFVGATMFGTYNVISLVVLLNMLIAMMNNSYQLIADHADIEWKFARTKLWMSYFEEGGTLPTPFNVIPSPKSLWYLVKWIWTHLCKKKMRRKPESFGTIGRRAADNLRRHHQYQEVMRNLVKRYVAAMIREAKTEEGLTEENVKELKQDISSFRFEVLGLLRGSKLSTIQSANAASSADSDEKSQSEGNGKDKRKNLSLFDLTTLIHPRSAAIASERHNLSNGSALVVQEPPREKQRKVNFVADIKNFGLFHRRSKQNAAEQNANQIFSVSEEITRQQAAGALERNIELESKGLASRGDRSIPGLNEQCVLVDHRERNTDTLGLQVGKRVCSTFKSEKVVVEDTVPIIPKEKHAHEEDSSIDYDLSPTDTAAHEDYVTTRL

[4] = molecular target: T1, Short transient receptor potential channel 4; assay: SAR Analysis for the identification of selective inhibitors of the transient receptor potential cation channel C4 (TRPC4): TRPC4 Serotonin Receptor CRC MPD assay. [Related pubchem assays (depositor defined):AID2247, AID2256]; assay type: functional
[5] = molecular target: T1, Short transient receptor potential channel 4; assay: block of DAMGO-driven TRPC4 calcium entry – cell-based, HEK293 TRPC4/mu-opioid, Fluo-4 calcium, dose response (AID 434942); assay type: functional;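 note: potency of inhibitors blocking the TRPC4 calcium response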
[6] = molecular target: T1, Short transient receptor potential channel 4; assay: potency of mouse TRPC4 calcium flux blockers – cell-based, HEK293 TRPC4/mu-opioid, DAMGO stimulus, Fluo-4, dose response (AID 492994); assay type: functional
[7] = molecular target: T1, Short transient receptor potential channel 4; assay: SAR Analysis for the identification of selective inhibits of the transient receptor potential cation channel C4 (TRPC4): Automated Electrophysiology. [Related pubchem assays (depositor defined):AID2256]; assay type: functional

O=C(c1ccc(Cl)cc1)N1CCN(c2ccnc3ccccc23)CC1
AC50 (Candida albicans): 9.81 µM (active)

COc1ccc(C(NC(=O)CCc2ccccc2)c2ccc3cccnc3c2O)cc1 (centres undefined)
IC50 (Jurkat): 2.52 µM (active)
IC50 (HEK293 [1]): 22.5 µM (inactive)
IC50 (HEK293 [2]): 2.3 µM (active)

Cc1cc(N2CCCCC2)nc2ccccc12
IC50 [3]: 1.23 µM (active)
IC50 [4]: 2.24 µM (active)
EC50 [5]: 0.0027 µM (active)
IC50 [6]: 0.82 µM (active)
IC50 [7]: 2.63 µM (active)

— ChEMBL document CHEMBL1201862, “PubChem BioAssay data set” (2004)
